Measured values from patent US20240299448A1, “METHODS FOR PREVENTING AND TREATING CHRONIC PAIN” (priority 2023, published 2024).

Key:
Assay type in all cases: in vivo, mouse
[1] = test system: CD-1 mice with plantar incision in the hind paw; experiment: Plantar incision postoperative pain, von Frey mechanical sensitivity
Procedure: CD-1 mice were housed in conventional shoebox cages with 3-4 mice per cage, in temperature-controlled environment (20±1° C.), on a 12:12 h light/dark cycle, with ad libitum access to filtered water and chow (Envigo Teklad 2920x, irradiated). All mice underwent plantar incision in the right hind paw. Mice were anesthetized with 5% isoflurane at 2 L/min into a sealed induction chamber then maintained with 2.5% isoflurane at 500 mL/min through a nose cone. A 5-mm longitudinal incision was created, the flexor digitorum brevis muscle was elevated, and then a longitudinal incision was made through it. Two skin sutures closed the wound, and Polysporin antibiotic was applied. The mice were subcutaneously injected with either dexamethasone (DEXA; 0.5 mg/kg/day) or saline (PBS) once per day from the day before surgery to day 6 after surgery. Also, mice were administered 100 ug/kg/day (p.o.) of beraprost sodium, a PTGIR agonist, or saline from day 5 to 8 after plantar incision surgery. Mechanical sensitivity tests were performed using von Frey filaments (using the up-down method of Dixon) before and after the surgery on days 1, 7, 9, 14, 21 and 35. Mice were individually acclimated for at least 1 hour in transparent Plexiglas enclosures (5 cm×8.5 cm by 6 cm) before withdrawal thresholds were measured.

[2] = test system: mice with chronic constriction injury (CCI) of the sciatic nerve; experiment: Chronic constriction injury (CCI) neuropathic pain, von Frey mechanical paw-withdrawal threshold; details: drug daily Day 0 to Day 6, vs saline
Procedure: Mice: CD-1 male and female mice aged 6-12 weeks (ICR:Crl, Charles River, St. Constant, QC) were used in these experiments. All mice were housed in standard shoebox cages with 2-4 (same-sex) per cage in a light (14:10 h, lights on at 07:00 h) and temperature-controlled (20±1° C.) environment with ad libidum access to food (Harlan Teklad 8604) and tap water. Mice were acclimated to the vivarium for 7 days post-arrival and before testing. Each mouse was used in a single drug experiment. Equal numbers of male and female mice were included in each cohort. Drugs: Dexamethasone (PromoCell, Heidelberg, Germany) was administered via daily subcutaneous injections at a dosage of 0.5 mg/kg/day. […] Before and after all injuries, mechanical paw-withdrawal threshold was measured with von Frey filaments using the up-down staircase method of Dixon (Chaplan et al., 1994), as previously described (Mogil et al., 2006). […] To quantify the acute effects of drugs on mechanical thresholds during drug exposure (on Day 4-6 after CCI or CFA), the percentage of maximum possible allodynia was quantified as: % allodynia=[(baseline threshold−post-drug threshold)/baseline threshold]×100. […] To quantify the duration of the entire CCI- or CFA-induced allodynic episode, the day-by-day mechanical thresholds of each subject was considered. […]

[3] = test system: mice with hind paw injection of complete Freund's adjuvant (CFA); experiment: CFA inflammatory pain, von Frey mechanical paw-withdrawal threshold; details: for allodynia during the administration period after CFA / duration of the overall allodynia episode produced by CFA: drug daily Day 0 to Day 6, diclofenac 25, morphine 5, gabapentin 100 mg/kg/day i.p., lidocaine 2% 20 μl s.c. hind paw, vs saline; for development of allodynia after CFA in dexamethasone-treated mice: hind paw injection on Day 3 and Day 5, ipsilateral to CFA, with dexamethasone; for duration of CFA allodynia in the absence of dexamethasone / CFA-induced mechanical allodynia in the absence of dexamethasone: hind paw injection on day 3 and day 5, no dexamethasone; for CFA-induced mechanical allodynia in the absence of dexamethasone: day 6 or any other time point, vs vehicle
Procedure: Mice: CD-1 male and female mice aged 6-12 weeks (ICR:Crl, Charles River, St. Constant, QC) were used in these experiments. All mice were housed in standard shoebox cages with 2-4 (same-sex) per cage in a light (14:10 h, lights on at 07:00 h) and temperature-controlled (20±1° C.) environment with ad libidum access to food (Harlan Teklad 8604) and tap water. Mice were acclimated to the vivarium for 7 days post-arrival and before testing. Each mouse was used in a single drug experiment. Equal numbers of male and female mice were included in each cohort.
Drugs: Dexamethasone (PromoCell, Heidelberg, Germany) was administered via daily subcutaneous injections at a dosage of 0.5 mg/kg/day. Diclofenac, morphine, and gabapentin were administered via intraperitoneal (i.p.) injection at a dose of 25 mg/kg/day, 5 mg/kg/day, and 100 mg/kg/day, respectively. Lidocaine was administered via subcutaneous (s.c.) injection of 20 μl of 2% lidocaine into the plantar hind paw. All drugs other than dexamethasone were purchased from Sigma-Aldrich (St. Louis, MO, USA). Anti-Ly6G (BioX Cell [InVivoPlus anti-mouse Ly6G/Ly6C (Gr-1)]) and its isotype control (BioX Cell [InVivoPlus rat IgG2b isotype control, anti-keyhole limpet hemocyanin]) were injected at a dose of 125 μg/day. S100A8 and S100A9 were injected (10 μl) into the plantar surface of the inflamed (see below) hind paw at a dose of 1 μg/day.
Neutrophils: Neutrophils were isolated using the EasySep Mouse Neutrophil Enrichment kit (Stem Cell Technologies, Vancouver, Canada) as per manufacturer's instructions. Briefly, blood was collected by cardiac puncture in a 21-gauge needle coated with 10% EDTA and pooled from 2-3 mice in PBS/2 mM EDTA. Red blood cells were lysed after incubation in 0.83% NH4Cl for 10 min at 4° C., with the reaction stopped by adding PBS+10% FBS. Cells were centrifuged at 300 g for 5 min and resuspended in PBS+10% FBS. Cells were then incubated with rat serum and enrichment cocktail for 15 min at 4° C. and centrifuged at 300 g for 10 min. Cells were then resuspended in biotin selection cocktail for 15 min at 4° C., followed by magnetic beads for an additional 10 min, and placed into the separation magnet for 3 min. Non adherent cells were removed, and adherent cells washed off of the walls of the tube and resuspended in PBS for injection. Cells (5×10^6, in 10 μl) were injected into the plantar surface of the inflamed hind paw (see below) of mice within 30 min of isolation.
In most experiments, complete Freud's adjuvant (50% CFA, 20 μl volume) was injected into the plantar surface of the mouse's left hind paw as a model of inflammatory pain.
Before and after all injuries, mechanical paw-withdrawal threshold was measured with von Frey filaments using the up-down staircase method of Dixon (Chaplan et al., 1994), as previously described (Mogil et al., 2006). In every experiment, a baseline threshold determination was made on Day 1. Drugs or cells were administered daily from Day 0 to Day 6 (dexamethasone, diclofenac, gabapentin, lidocaine), on Day 3 and Day 5 (S100A8, S100A9, and neutrophils), or every other day from Day 0 to Day 20 (anti-Ly6G). von Frey testing on Day 6 occurred 1 hour after the drug injection on that day. Testing continued until both vehicle and drug groups had returned to their baseline statistically (with the exception of CFA+diclofenac), even though not all individual mice had necessarily recovered. Thus, in an attempt to minimize the duration that mice remained in pain, the length of experiments were different depending on the assay used and the purpose of the experiment, from 40 days post drug to 120 days post-drug.
Data analysis: Time course data of von Frey thresholds are shown graphically. To quantify the acute effects of drugs on mechanical thresholds during drug exposure (on Day 4-6 after CCI or CFA), the percentage of maximum possible allodynia was quantified as: % allodynia=[(baseline threshold−post-drug threshold)/baseline threshold]×100. […]

[4] = DEXA 0.5 mg/kg/day s.c. plus beraprost sodium 100 ug/kg/day p.o. day 5 to 8

Molecule: CC#CCC(C)[C@H](O)/C=C/[C@@H]1[C@H]2c3cccc(CCCC(=O)O)c3O[C@H]2C[C@H]1O (mixture of isomers) [beraprost, beraprost sodium]
- long-lasting DEXA-induced hyperalgesia after plantar incision [1, 4]: prevented long-lasting DEXA-induced hyperalgesia
- time to recovery after plantar incision [1, 4]: recovered after one week
- duration of hypersensitivity after plantar incision ([1]; DEXA 0.5 mg/kg/day s.c., no beraprost): up to one month

Molecule: C[C@@H]1C[C@H]2[C@@H]3CCC4=CC(=O)C=C[C@]4(C)[C@@]3(F)[C@@H](O)C[C@]2(C)[C@@]1(O)C(=O)CO [dexamethasone, Dexamethasone]
- hind paw allodynia at the end of the treatment period after CCI ([2]; day 6): no effect

Molecule: O=C(O)Cc1ccccc1Nc1c(Cl)cccc1Cl [diclofenac, Diclofenac]
- recovery to baseline / duration of CCI-induced allodynia [2]: prolong the duration
- allodynia during the administration period after CFA [3]: reduced allodynia
- duration of the overall allodynia episode produced by CFA [3]: significantly prolonged the duration

Molecule: NCC1(CC(=O)O)CCCCC1 [gabapentin]
- allodynia during the administration period after CFA [3]: reduced allodynia
- duration of the overall allodynia episode produced by CFA [3]: without affecting the overall duration

Molecule: CCN(CC)CC(=O)Nc1c(C)cccc1C [lidocaine, Lidocaine]
- allodynia during the administration period after CFA [3]: reduced allodynia
- duration of the overall allodynia episode produced by CFA [3]: without affecting the overall duration

Molecule: CN1CC[C@]23c4c5ccc(O)c4O[C@H]2[C@@H](O)C=C[C@H]3[C@H]1C5 [morphine]
- allodynia during the administration period after CFA [3]: reduced allodynia
- duration of the overall allodynia episode produced by CFA [3]: without affecting the overall duration

B1: S100A8: neutrophil-released alarmin protein, injected into the hind paw at 1 μg/day (protein, UniProt P27005 2-89, looked up)
Protein S100-A8: PSELEKALSNLIDVYHNYSNIQGNHHALYKNDFKKMVTTECPQFVQNINIENLFRELDINSDNAINFEEFLAMVIKVGVASHKDSHKE
- development of allodynia after CFA in dexamethasone-treated mice [3]: prevented the development of allodynia entirely
- duration of CFA allodynia in the absence of dexamethasone [3]: neither neutrophils nor S100A8/A9 significantly affected the duration
- CFA-induced mechanical allodynia in the absence of dexamethasone [3]: No effect

B2: S100A9: neutrophil-released alarmin protein, injected into the hind paw at 1 μg/day (protein, UniProt P31725 2-113, looked up)
Protein S100-A9: ANKAPSQMERSITTIIDTFHQYSRKEGHPDTLSKKEFRQMVEAQLATFMKKEKRNEALINDIMEDLDTNQDNQLSFEECMMLMAKLIFACHEKLHENNPRGHGHSHGKGCGK
- development of allodynia after CFA in dexamethasone-treated mice [3]: prevented the development of allodynia entirely
- duration of CFA allodynia in the absence of dexamethasone [3]: neither neutrophils nor S100A8/A9 significantly affected the duration
- CFA-induced mechanical allodynia in the absence of dexamethasone [3]: No effect
